Source: patent US10399971B2, “Compound for treating or preventing hyperuricemia or gout” (JIANGSU ATOM BIOSCIENCE AND PHARMACEUTICAL CO., LTD., priority 2015, dated 2019)
Where two headings read alike, the source gives them in different places.

Tests used:
[1] = Acute toxicity of single oral dose in SD rats
hyperuricemia mice = assay: Uric acid excretion test in hyperuricemia mice; assay type: in vivo, Kunming mice; settings: 15 mg/kg oral
Experimental: Species: Kingming mice (Clean Level); body weights: 25 to 30 g; ages: 4 to 5 weeks; sex: male. These mice were purchased from Shanghai SLAC Laboratory Animal Co., Ltd. Certificate No.: SCXK (HU) 2012-2002. Animal quality certificate number: 2015000522173.
A certain amount of adenine and yeast extract powder was weighted and a certain amount of double distilled water was added. The mixture was stirred at about 60° C. for 40 min to give a suspension, which the concentration of yeast extract is 0.6 g/mL and the concentration of adenine is 12 mg/mL.
A suspension of 20 mg/mL potassium oxonate was prepared by mixing a certain amount of potassium oxonate with 0.5% CMC-Na solution before use.
Male Kunming mice were randomly divided into four groups: blank control group, model group, compound 74 group, and benzbromarone group. Each group has six mice. All mice fasted 2 to 3 h before use. The model group, benzbromarone group, and compound 74 group were orally given a suspension of yeast extract and adenine prepared above to reach the final dosage of 10 g/kg (body weight) of yeast extract and 200 mg/kg (body weight) of adenine, respectively. The blank control group was only given same volume of normal saline orally. After 2.5 h, all mice in compound 74 group and benzbromarone group were given 10 mL/kg of suspension of compound 74 (1.5 mg/mL) and 10 mL/kg of suspension of benzbromarone (1.5 mg/mL), respectively. The blank control group and model group were orally given same volume of 0.5% CMC-Na solution. All animals were treated in the same way for seven days by using administration methods described above. On the last day, after administration of a suspension of yeast extract and adenine for the model group, compound 74 group, and benzbromarone group, all mice in these three groups were given 12.5 mL/kg of potassium oxonate (20 mg/mL) by i.p. The blank control was only given same volume of 0.5% CMC-Na solution by i.p. After 30 min, compound 74 and benzbromarone were administrated orally to the mice at same dosages as above in compound 74 group and benzbromarone group, respectively. The blank control group and model group were orally given same volume of 0.5% CMC-Na solution.
Collection of urine samples: All mice were placed in metabolic cages with normal diet individually after giving test compounds on the last day. 24 h urine was collected and the urine volume was measured. The urine was centrifugated at 3000 rpm for 20 min and the supernatant was collected.
Detection of the concentration of uric acid of mice urine samples: uric acid concentration in samples was detected by using uric acid assay kit (phosphotungstic acid method) followed the procedures described in the instruction.

[2] = system: human normal liver cell line WRL-68; assay: Cytotoxicity test on human normal liver cell line WRL-68 (Alamar Blue); assay type: cell-based; settings: WRL68, WRL-68 cells, 120 h incubation, cell viability, read-out: half inhibitory concentration (IC50) against WRL-68
Experimental: (§1) 2.1 The normal liver cell lines L-02 and WRL-68 were cultured with DMEM culture medium (containing 10% of fetal bovine serum, 100 U/mL of penicillin and 0.1 mg/mL of streptomycin) in an incubator under 5% CO2 at 37° C. until the cell density was about 90%, respectively.
(§2) 2.3 Tested compounds and benzbromarone at different concentration gradients were prepared by using the DMEM culture medium and added into wells at 100 μL/well as compounds wells. The DMEM culture medium was added into wells at 100 μL/well without tested compound as negative control wells.
(§3) This 10× Alamar Blue solution was diluted into 1× Alamar Blue solution with phenol red free DMEM culture medium before use.
(§4) 2.5 The cells were washed with PBS (0.1 M, pH=7.4) twice. The Alamar Blue solution was added into wells at 100 μL/well. 100 μL of Alamar Blue solution was added into wells without cells to serve as blank control wells. The 96-well plate was placed in an incubator under 5% CO2 at 37° C. for 3 h. Each concentration of compound was repeated three times during the test.
(§5) The fluorescence value of the cells containing compound is the F(test compound); the fluorescence value of the cells without compound as blank control is the F(blank control); the fluorescent value of the cells from negative control group is F(negative control). The average value and standard deviation of cell viability of three repeated concentrations was calculated by the following formula: […]
(§6) 2.7 The half inhibitory concentration (IC50) of the compound for the cells L-02 and WRL-68 was obtained from the cell viability by Prism Graph software.

[3] = system: human normal liver cell line L-02; assay: Cytotoxicity test on human normal liver cell line L-02 (Alamar Blue); assay type: cell-based; settings: L02, L-02 cells, 120 h incubation, cell viability, read-out: half inhibitory concentration (IC50) against L-02
Experimental: as §1, §2, §3, §4, §5, §6

in vivo = settings: both, SD, rat, po
From the text: Rats were randomly divided into group A1, group B1 and blank control group. Each group has 10 of rats with half male and half female.

hURAT1 = biological target: T1, hURAT1 (Homo sapiens, UniProt Q96S37); assay: Inhibition assay of uric acid transport in HEK293-hURAT1 transfection cell line; assay type: cell-based; settings: for inhibition at 0.5 µM: read-out: Inhibitory rates of uric acid transport, ±SD (%)
T1 sequence (Q96S37 1-553): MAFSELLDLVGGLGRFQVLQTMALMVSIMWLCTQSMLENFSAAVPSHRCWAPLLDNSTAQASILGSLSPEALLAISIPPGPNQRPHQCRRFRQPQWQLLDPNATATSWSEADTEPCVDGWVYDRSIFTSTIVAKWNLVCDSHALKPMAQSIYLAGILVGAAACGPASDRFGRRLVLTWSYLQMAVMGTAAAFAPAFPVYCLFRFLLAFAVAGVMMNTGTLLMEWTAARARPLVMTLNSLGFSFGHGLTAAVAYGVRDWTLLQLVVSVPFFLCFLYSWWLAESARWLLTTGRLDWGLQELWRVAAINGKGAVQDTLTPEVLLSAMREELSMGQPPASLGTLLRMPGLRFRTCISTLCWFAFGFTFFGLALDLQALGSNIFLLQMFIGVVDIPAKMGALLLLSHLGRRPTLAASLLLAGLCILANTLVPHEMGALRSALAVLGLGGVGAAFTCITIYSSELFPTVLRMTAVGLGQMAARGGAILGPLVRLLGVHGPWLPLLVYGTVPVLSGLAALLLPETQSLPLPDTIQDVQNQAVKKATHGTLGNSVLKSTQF
Experimental: 2.1 Construction of a HEK293 stable cell line with high expression of hURAT1: The plasmid pCMV6-hURAT1 was transfected into HEK293 cells, then the stable strain was obtained by the G418 (final concentration 500 μg/mL) resistance screening, which is the high expression of hURAT1 transporter membrane protein.
2.2 To a coated 24-well plate was added 200 μL of 0.1 mg/mL poly-lysine per well and the plate was left overnight. Poly-lysine was removed from wells. The wells were cleaned thoroughly with aseptic water and dried for use.
2.3 To the above coated 24 well plate was added HEK293-hURAT1 stable cells (2×10^5 cells per well). The cells was cultured at 37° C. under 5% CO2 for 3 days.
The solution was fully mixed to give HBSS buffer (pH value: 7.4). The buffer was stored at −20° C.
2.5 The HBSS buffer was warmed to 37° C. in a water bath. Washed cells with HBSS twice, added 160 μL of HBSS and 20 μL test compound per well. The final concentration of tested compound per well is 500 nM. The blank control well contains only 180 μL of HBSS without tested compound. The plate was placed at room temperature for 30 min.
2.6 To each well was added 20 μL of 50 μM ^14C-Uric acid. The plate was placed at room temperature for 20 min.
2.7 The solution in each well was removed and the cells in each well were washed with pre-cooled HBSS buffer. To each well was added 0.2 M NaOH to dissolve the cells. The solution containing cell fragments was collected and the right amount of scintillation liquid was added.
The formula for calculating the inhibitory rate of uric acid transport for compounds was shown as below: […]

[4] = 500 nM, HEK293-hURAT1 transfection cell line, 14C-uric acid, average of three tests

Row | SMILES | Death rate ([1]; SD rats, single oral dose, 74 at 5.0 g/kg, BBR at 0.14 g/kg, 10 rats per group, 14 days observation) | death of rats in pre-experiment of acute toxicity ([1]; pre-experiment, compound 74 at 5 g/kg (highest dose), benzbromarone at 0.14 g/kg) | uric acid excretion increased compared with the model group (hyperuricemia mice; increase over model group) | Changes of uric acid excretion (compared with model group, %) (hyperuricemia mice; model group set to 100%) [%] | Uric acid in urine for 24 h, ±SD (hyperuricemia mice; seven days, 6 mice) [mmol] | IC50 [2] [µM] | IC50 [3] [µM] | MTD at 14 days (in vivo) [mg/kg] | inhibition at 0.5 µM (hURAT1) [%] | Inhibitory rates of uric acid transport, ±SD (%) (hURAT1; 500 nM, HEK293-hURAT1 transfection cell line, 14C-uric acid, average of three tests, 0.5 µM) | inhibition at 0.5 µM (hURAT1; [4]) [%]
1 | CCc1oc2ccccc2c1C(=O)c1cc(Br)c(O)c(Br)c1 [BBR, (3,5-dibromo-4-hydroxyphenyl)(2-ethyl-benzofuran-3-yl)methanone, reference compound] | 0/10 | no death of rats was found | about 25.35% | 125.35 | 13.40 ± 1.59 | 45.5 | 40.2 | 140 | 55.6 ± 1.42 | – | –
2 | CCc1nc2ccccn2c1C(=O)c1cc(I)c(O)c(C#N)c1 [Compound 75, 5-(2-ethylimidazo[1,2-a]pyridine-3-carbonyl)-2-hydroxy-3-iodobenzonitrile hydrogen chloride] | – | – | – | – | – | > 100 | > 100 | – | – | 62.58 ± 0.84 | –
3 | CCc1nc2cc(C)c(Br)cn2c1C(=O)c1cc(Br)c(O)c(Br)c1 [Compound 56, (6-bromo-2-ethyl-7-methylimidazo[1,2-a]pyridin-3-yl)-(3,5-dibromo-4-hydroxyphenyl)methanone] | – | – | – | – | – | > 100 | > 100 | – | – | – | 62.8 ± 9.34
4 | CCc1nc2ccc(O)cn2c1C(=O)c1cc(Br)c(O)c(Br)c1 [Compound 52, (3,5-dibromo-4-hydroxyphenyl)(2-ethyl-6-hydroxyimidazo-[1,2-a]pyridin-3-yl)methanone] | – | – | – | – | – | > 100 | > 100 | – | – | – | 57.5 ± 3.61
5 | CCc1nc2ccc(OC)cn2c1C(=O)c1cc(Br)c(O)c(Br)c1 [Compound 33, (3,5-dibromo-4-hydroxyphenyl)(2-ethyl-6-methoxyimidazo[1,2-a]pyridine-3-yl)methanone] | – | – | – | – | – | > 100 | > 100 | – | – | – | 65.06 ± 0.39
